“And” between values parts separate entries of the source, which are not always exact repeats. Equal values may be shown once. Read-outs that look alike come from different tables or passages of the source.

Experiment [1] relates to four H. pylori strains (ATCC 43504, NCTC 26695, SS1 and ICDC 111001). The experiment is described as follows: MIC by agar dilution method, range over the four strains. It counts as cell-based. The note with it: Helicobacter pylori, read-out: MIC values against the four H. pylori strains. Here is the method:
A total of four H. pylori strains were studied, including three reference strains ATCC 43504, NCTC 26695 and SS1 gifted from Professor Richard Ferrero, Monash University, Australia, and one clinical isolate ICDC 111001 obtained from Professor Zhang Jianzhong, Chinese Center of Disease Control and Prevention. […] The MICs of Pal against the four H. pylori strains were evaluated by using agar dilution method. […] H. pylori strains were harvested and resuspended in PBS (1.0–2.0 McFarland were defined based on the strain properties). […] After 72 h, the MIC values were determined as the lowest concentration at which there was no strain growth judged by visual examination. Metronidazole was used as the positive control. The experiments were evaluated under two different pH (7.4 and 5.3) conditions and repeated twice.

The next experiment deals with T1, H. pylori urease (HPU) (Helicobacter pylori, UniProt P69996).
T1 construct: HPU was prepared as previously described; made in house
The experiment is described as follows: biochemical. It counts as biochemical. As to the method:
(§1) For the protection with inorganic compounds (BA and NaF), 0.25 mg/mL urease (HPU or JBU) was preincubated with 5 mM BA or 5 mM NaF for 20 min. Following preincubation, each sample of the protected urease was incubated with 0.5 mM Pal for 20 min. The samples containing a proper volume of respective buffer instead of Pal served as comparison with the abovementioned systems. The experiments were triply performed.

The target in another experiment is T2, jack bean urease (JBU) (Canavalia ensiformis, UniProt P07374).
T2 construct: Urease from jack bean (Canavalia ensiformis, JBU); purchased Sigma-Aldrich (St Louis, MO, USA) type III (catalogue number not given)
The experiment is described as follows: biochemical. It counts as biochemical. Here is the method:
as §1

T1 sequence (P14916 whole entry): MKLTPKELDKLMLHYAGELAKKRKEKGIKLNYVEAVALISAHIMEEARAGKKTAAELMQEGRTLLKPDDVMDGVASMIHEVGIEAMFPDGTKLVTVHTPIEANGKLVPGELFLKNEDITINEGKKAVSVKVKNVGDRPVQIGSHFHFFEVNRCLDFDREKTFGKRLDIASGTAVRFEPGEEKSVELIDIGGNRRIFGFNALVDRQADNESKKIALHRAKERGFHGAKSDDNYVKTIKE
T1 sequence (P69996 whole entry): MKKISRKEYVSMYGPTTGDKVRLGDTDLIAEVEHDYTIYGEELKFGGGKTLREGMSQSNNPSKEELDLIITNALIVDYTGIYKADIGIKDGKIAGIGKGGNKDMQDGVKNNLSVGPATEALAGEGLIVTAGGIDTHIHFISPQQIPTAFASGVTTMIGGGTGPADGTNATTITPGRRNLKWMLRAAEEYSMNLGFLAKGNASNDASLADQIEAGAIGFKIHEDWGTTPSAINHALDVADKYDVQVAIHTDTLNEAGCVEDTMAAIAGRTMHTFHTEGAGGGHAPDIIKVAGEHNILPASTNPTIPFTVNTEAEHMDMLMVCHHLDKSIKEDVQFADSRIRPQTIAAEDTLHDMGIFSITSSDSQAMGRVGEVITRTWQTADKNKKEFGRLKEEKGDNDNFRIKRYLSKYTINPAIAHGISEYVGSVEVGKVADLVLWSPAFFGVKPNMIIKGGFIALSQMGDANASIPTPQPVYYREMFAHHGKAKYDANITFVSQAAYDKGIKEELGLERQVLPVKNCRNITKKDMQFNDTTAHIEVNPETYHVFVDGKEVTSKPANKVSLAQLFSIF
T2 sequence (P07374 whole entry, looked up): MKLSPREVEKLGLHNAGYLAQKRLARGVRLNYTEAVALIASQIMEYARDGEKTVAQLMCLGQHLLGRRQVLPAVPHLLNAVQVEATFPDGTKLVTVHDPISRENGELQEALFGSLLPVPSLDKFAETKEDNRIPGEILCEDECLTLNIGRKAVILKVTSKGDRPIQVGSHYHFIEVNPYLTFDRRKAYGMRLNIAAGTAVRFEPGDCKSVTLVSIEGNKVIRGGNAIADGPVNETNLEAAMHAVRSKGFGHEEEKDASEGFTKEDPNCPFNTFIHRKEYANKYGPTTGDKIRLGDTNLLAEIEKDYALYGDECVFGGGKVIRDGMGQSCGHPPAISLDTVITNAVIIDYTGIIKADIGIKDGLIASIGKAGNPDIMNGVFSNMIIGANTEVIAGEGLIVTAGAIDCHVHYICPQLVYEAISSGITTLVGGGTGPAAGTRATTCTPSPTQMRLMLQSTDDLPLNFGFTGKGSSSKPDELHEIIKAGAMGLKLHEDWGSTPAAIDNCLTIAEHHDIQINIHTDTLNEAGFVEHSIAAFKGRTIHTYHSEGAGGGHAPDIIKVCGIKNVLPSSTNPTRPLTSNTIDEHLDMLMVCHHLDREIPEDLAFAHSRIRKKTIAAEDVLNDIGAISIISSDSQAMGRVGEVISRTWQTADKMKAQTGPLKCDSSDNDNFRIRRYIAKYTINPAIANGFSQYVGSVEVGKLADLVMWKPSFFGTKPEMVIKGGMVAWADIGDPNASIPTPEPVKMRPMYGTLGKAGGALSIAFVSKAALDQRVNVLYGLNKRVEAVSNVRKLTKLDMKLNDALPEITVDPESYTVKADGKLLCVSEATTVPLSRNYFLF

Consider `COc1cc2c(cc1OC)-c1cc3ccc(OC)c(OC)c3c[n+]1CC2` [Pal, Palmatine], for which the MIC is 75 to 100 µg/mL in experiment [1] (acidic conditions (pH 5.3)) and 100 to 200 µg/mL in experiment [1] (neutral conditions (pH 7.4)). For the same molecule, the “Residual urease activity (percent of control)” value on H. pylori urease (HPU) (Fig 4C HPU, BA or NaF 5 mM preincubated 20 min, Pal 0.5 mM 20 min) was 23.7773% and 26.341%; at jack bean urease (JBU) (Fig 4D JBU, BA or NaF 5 mM preincubated 20 min, Pal 0.5 mM 20 min), 36.6919% and 36.1251%. The “activity of enzyme inactivated by Pal in the presence of BA” value on H. pylori urease (HPU) (HPU, 5 mM BA + 0.5 mM Pal, mean) was found to be 22.42%; on jack bean urease (JBU) (JBU, 5 mM BA + 0.5 mM Pal, mean) it was 33.08%. In addition, the “activity of enzyme inactivated by Pal in the presence of NaF” value on H. pylori urease (HPU) (HPU, 5 mM NaF + 0.5 mM Pal, mean) was 20.35%; at jack bean urease (JBU) (JBU, 5 mM NaF + 0.5 mM Pal, mean) it was 19.91%. Moreover, the remaining activity at 500 µM at H. pylori urease (HPU) (read-out: Residual urease activity (percent of control), Fig 4C HPU, BA or NaF 5 mM preincubated 20 min, Pal 0.5 mM 20 min) amounted to 23.1%; at jack bean urease (JBU) (read-out: Residual urease activity (percent of control), Fig 4D JBU, BA or NaF 5 mM preincubated 20 min, Pal 0.5 mM 20 min) it was 35.2%.

The values are drawn from publication PMC5207512, “Inhibition of Helicobacter pylori and Its Associated Urease by Palmatine: Investigation on the Potential Mechanism” (PLoS ONE, 2017).
